Common to all, as to type: physicochemical
Series [1] in a line: Storage stability at different relative humidities and temperatures in packed bags, XRPD after 1, 2, 3 and 6 months. Here is the method:
Powder X-ray Diffraction was performed on an X-Ray powder diffractometer Bruker D8 Advance; CuK radiation (λ=1.5418 Å); Lynx eye detector; laboratory temperature 22-25° C.; PMMA specimen holder ring. Prior to analysis, the samples were gently ground by means of mortar and pestle in order to obtain a fine powder. The ground sample was adjusted into a cavity of the sample holder and the surface of the sample was smoothed by means of a cover glass.
Measurement parameters: Scan range: 2-40 degrees 2-theta; Scan mode: continuous; Step size: 0.05 degrees; Time per step: 0.5 s; Sample spin: 30 rpm; Sample holder: PMMA specimen holder ring with silicon low background.
Samples of Delgocitinib polymorph forms according to the disclosure were subjected to conditions of different relative humidities at different temperatures. Forms DL1 was kept in low-density polyethylene bag (twist and tied) covered by triple laminated bag (heat and sealed). Forms DL2, DL3, DL10 and DL11 were kept in low-density polyethylene bag (twist and tied) and covered by triple laminated bag (heat and sealed), while 2 gram silica gel sachet was added in between the two bags.

A short description of series [2]: Grinding experiments (strong grinding in mortar with pestle for 2 minutes), XRPD after grinding. The note with it: about 20 mg ground in mortar with pestle for 2 minutes. Here is the method: Powder X-ray Diffraction was performed on an X-Ray powder diffractometer Bruker D8 Advance; CuK radiation (λ=1.5418 Å); Lynx eye detector; laboratory temperature 22-25° C.; PMMA specimen holder ring. Prior to analysis, the samples were gently ground by means of mortar and pestle in order to obtain a fine powder. The ground sample was adjusted into a cavity of the sample holder and the surface of the sample was smoothed by means of a cover glass. Measurement parameters: Scan range: 2-40 degrees 2-theta; Scan mode: continuous; Step size: 0.05 degrees; Time per step: 0.5 s; Sample spin: 30 rpm; Sample holder: PMMA specimen holder ring with silicon low background. Samples of Delgocitinib forms according to the disclosure were subjected to strong grinding. In these experiments, about 20 mg of the sample was placed in a mortar and ground with a pestle for 2 minutes. XRPD analysis was performed on each sample after the grinding experiment (Table 4): […]

Series [3] is described as follows: Storage stability at different relative humidities at ambient temperature, XRPD after 7 days. The conditions noted are these: ambient temperature, 7 days. The method, then:
Powder X-ray Diffraction was performed on an X-Ray powder diffractometer Bruker D8 Advance; CuK radiation (λ=1.5418 Å); Lynx eye detector; laboratory temperature 22-25° C.; PMMA specimen holder ring. Prior to analysis, the samples were gently ground by means of mortar and pestle in order to obtain a fine powder. The ground sample was adjusted into a cavity of the sample holder and the surface of the sample was smoothed by means of a cover glass. Measurement parameters: Scan range: 2-40 degrees 2-theta; Scan mode: continuous; Step size: 0.05 degrees; Time per step: 0.5 s; Sample spin: 30 rpm; Sample holder: PMMA specimen holder ring with silicon low background. Samples of crystalline forms of Delgocitinib according to the disclosure, were subjected to conditions of different relative humidities at ambient temperature. XRPD analysis was performed on the samples after 7 days.

Series [4] is described as follows: Stability to compression (2 tons, hydraulic press), XRPD after 2 minutes. The conditions noted are these: 2 tons for 2 minutes. The method, then: Powder X-ray Diffraction was performed on an X-Ray powder diffractometer Bruker D8 Advance; CuK radiation (λ=1.5418 Å); Lynx eye detector; laboratory temperature 22-25° C.; PMMA specimen holder ring. Prior to analysis, the samples were gently ground by means of mortar and pestle in order to obtain a fine powder. The ground sample was adjusted into a cavity of the sample holder and the surface of the sample was smoothed by means of a cover glass. Measurement parameters: Scan range: 2-40 degrees 2-theta; Scan mode: continuous; Step size: 0.05 degrees; Time per step: 0.5 s; Sample spin: 30 rpm; Sample holder: PMMA specimen holder ring with silicon low background. Samples of Delgocitinib were subjected to pressures of 2 tons (Atlas® Autopress hydraulic press, set to 2 tons). XRPD analysis was carried out on the samples after 2 minutes.

With `C[C@H]1CN(C(=O)CC#N)[C@]12CCN(c1ncnc3[nH]ccc13)C2` [Form DL10, 3-[(3S,4R)-3-methyl-7-(7H-pyrrolo[2,3-d]pyrimidin-4-yl)-1,7-diazaspiro[3.4]octan-1-yl]-3-oxopropanenitrile], the “XRPD after storage at 25° C. at 60% RH” value is given as “DL10” in series [1] (1 month, listed as DL10); “DL10” in series [1] (2 months, listed as DL10); “DL10” in series [1] (3 months, listed as DL10); “DL10” in series [1] (6 months, listed as DL10). Also, the “XRPD after storage at 40° C. at 75% RH” value in series [1] (1 month, listed as DL10) is “DL10”; in series [1] (2 months, listed as DL10), “DL10”; in series [1] (3 months, listed as DL10) it was “DL10”; in series [1] (6 months, listed as DL10), “DL10”. Besides, the XRPD after grinding entry in series [2] (listed as DL10) is given as “DL10”. Further, the “XRPD after storage at different relative humidities for 7 days” value in series [3] (20% relative humidity, listed as DL10) is “DL10”; in series [3] (40% relative humidity, listed as DL10), “DL10”; in series [3] (60% relative humidity, listed as DL10), “DL10”; in series [3] (80% relative humidity, listed as DL10), “DL10”. In addition, in series [4] (listed as DL10), the “XRPD after compression force (2 tons for 2 minutes)” value (from here on “XRPD after compression force”) is reported as “DL10”.
As to `C[C@H]1CN(C(=O)CC#N)[C@]12CCN(c1ncnc3[nH]ccc13)C2` [Form DL2, 3-[(3S,4R)-3-methyl-7-(7H-pyrrolo[2,3-d]pyrimidin-4-yl)-1,7-diazaspiro[3.4]octan-1-yl]-3-oxopropanenitrile], the “XRPD after storage at 25° C. at 60% RH” value is recorded as “DL2” in series [1] (1 month, listed as DL2); “DL2” in series [1] (2 months, listed as DL2); “DL2” in series [1] (3 months, listed as DL2); “DL2” in series [1] (6 months, listed as DL2). The “XRPD after storage at 40° C. at 75% RH” value in series [1] (1 month, listed as DL2) is given as “DL2”; in series [1] (2 months, listed as DL2), “DL2”; in series [1] (3 months, listed as DL2), “DL2”; in series [1] (6 months, listed as DL2), “DL2”. Moreover, in series [2] (listed as DL2), the XRPD after grinding entry is “DL2”. The “XRPD after storage at different relative humidities for 7 days” value is “DL2” in series [3] (20% relative humidity, listed as DL2); “DL2” in series [3] (40% relative humidity, listed as DL2); “DL2” in series [3] (60% relative humidity, listed as DL2); “DL2” in series [3] (80% relative humidity, listed as DL2). Besides, the “XRPD after compression force” value in series [4] (listed as DL2) was “DL2”.
Turning to `C[C@H]1CN(C(=O)CC#N)[C@]12CCN(c1ncnc3[nH]ccc13)C2` [Form DL11, 3-[(3S,4R)-3-methyl-7-(7H-pyrrolo[2,3-d]pyrimidin-4-yl)-1,7-diazaspiro[3.4]octan-1-yl]-3-oxopropanenitrile], the “XRPD after storage at 25° C. at 60% RH” value in series [1] (1 month, listed as DL11) is listed as “DL11”; in series [1] (2 months, listed as DL11), “DL11”; in series [1] (3 months, listed as DL11) it was “DL11”; in series [1] (6 months, listed as DL11), “DL11”. In addition, the “XRPD after storage at 40° C. at 75% RH” value was “DL11” in series [1] (1 month, listed as DL11); “DL11” in series [1] (2 months, listed as DL11); “DL11” in series [1] (3 months, listed as DL11); “DL11” in series [1] (6 months, listed as DL11). Moreover, in series [2] (listed as DL11), the XRPD after grinding result is “DL11”. Also, the “XRPD after storage at different relative humidities for 7 days” value in series [3] (20% relative humidity, listed as DL11) is on record as “DL11”; in series [3] (40% relative humidity, listed as DL11), “DL11”; in series [3] (60% relative humidity, listed as DL11), “DL11”; in series [3] (80% relative humidity, listed as DL11) it was “DL11”. The “XRPD after compression force” value in series [4] (listed as DL11) is “DL11”.
For `C[C@H]1CN(C(=O)CC#N)[C@]12CCN(c1ncnc3[nH]ccc13)C2` [Form DL3, 3-[(3S,4R)-3-methyl-7-(7H-pyrrolo[2,3-d]pyrimidin-4-yl)-1,7-diazaspiro[3.4]octan-1-yl]-3-oxopropanenitrile], the “XRPD after storage at 25° C. at 60% RH” value in series [1] (1 month, listed as DL3) is “DL3”; in series [1] (2 months, listed as DL3), “DL3”; in series [1] (3 months, listed as DL3) it was “DL3”; in series [1] (6 months, listed as DL3), “DL3”. Further, the “XRPD after storage at 40° C. at 75% RH” value in series [1] (1 month, listed as DL3) was “DL3”; in series [1] (2 months, listed as DL3), “DL3”; in series [1] (3 months, listed as DL3), “DL3”; in series [1] (6 months, listed as DL3), “DL3”. In series [2] (listed as DL3), the XRPD after grinding result is on record as “DL3”. Further, the “XRPD after storage at different relative humidities for 7 days” value was “DL3” in series [3] (20% relative humidity, listed as DL3); “DL3” in series [3] (40% relative humidity, listed as DL3); “DL3” in series [3] (60% relative humidity, listed as DL3); “DL3” in series [3] (80% relative humidity, listed as DL3). In series [4] (listed as DL3), the “XRPD after compression force” value is given as “DL3”.
